The results in this text go back to patent US20220153732A1, “PROTEIN SECRETION INHIBITORS” (KEZAR LIFE SCIENCES, priority 2019, published 2022).

Each structure is given as a SMILES string. Read-outs that look alike come from different tables or passages of the source.

Common to all, as to type: cell-based
Assay [1] has as its system TNFα-FL/Gaussia Luciferase. As to the kind of experiment: Dox Induced TNFα-FL-Gluc Assay. The conditions noted are these: 293FRT/TO cells, read-out: 24 hr Dox Inducible TNFaFLGluc 293FRT/TO: Mean IC50. In a few lines:
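A stable T-REx cell line carrying doxycycline-inducible TNFα-FL/Gaussia luciferase was plated the day before assay. Compound dilutions in DMSO/media containing doxycycline were then added and incubated at 37° C, 5% CO2.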

For assay [2], the system named is HER3-ss+4aa/Gaussia Luciferase. Kind of assay: Dox-Induced Her3-ss-Gluc Assay. The conditions noted are these: 293FRT/TO cells, read-out: 24 hr Dox Inducible Her3(ss + 4)Gluc 293FRT/TO: Mean IC50. In a few lines:
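Stable T-REx cell line carrying a doxycycline-regulated HER3-ss+4aa/Gaussia luciferase insert, plated the day before assay. Compound dilutions in DMSO/media with doxycycline added, then incubated at 37° C., 5% CO2. Stereoisomer mixtures tested where stereochemistry is not drawn.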

Assay [3] deals with IL-2-FL/Gaussia Luciferase. As to the kind of experiment: Dox Induced IL2-FL-Gluc Assay. The conditions noted are these: 293FRT/TO cells, read-out: 24 hr Dox Inducible IL2FLGIuc 293FRT/TO: Mean IC50. The gist of the method: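 Stable T-REx cell line expressing doxycycline-inducible IL-2-FL/Gaussia luciferase cDNA, plated the day before assay. Compound dilutions in DMSO/media containing doxycycline added and incubated at 37° C., 5% CO2. Unspecified stereochemistry means data refer to a stereoisomer mixture.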

Assay [4] concerns PD1-ss+10aa/Gaussia Luciferase. As to the kind of experiment: Dox-Induced PD1-ss-Gluc Assay. The conditions noted are these: 293FRT/TO cells, read-out: 24 hr Dox Inducible PD1ssGluc 293FRT/TO: Mean IC50. In a few lines: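 Stable cell line carrying PD1-ss+10aa/Gaussia luciferase cDNA under T-REx (doxycycline-inducible) control, plated the day before assay. Compound dilutions in DMSO/media containing doxycycline added and incubated at 37° C, 5% CO2. Undefined stereocentres: data refer to stereoisomer mixtures.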

The subject of assay [5] is human multiple myeloma cell line U266B1. As to the kind of experiment: U266 Cell Viability Assay. The conditions noted are these: U-266, 48 hr, U266B1 cells, Celltiter-Glo, read-out: 48 hr U266 Viability Celltiter-Glo: Mean EC50. The gist of the method: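 U266B1 myeloma cells treated with compound dilutions in DMSO/media for 48 h at 37 °C, 5% CO2. Viability read by CellTiter-Glo luminescence. Stereochemically undefined structures were tested as stereoisomer mixtures.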
A general note: Cellular ATP, detected with luciferase, serves as a proxy for viable cell number.

Assay [6] deals with human multiple myeloma cell line NCI-H929. As to the kind of experiment: H929 Cell Viability Assay. As to conditions: 48 hr, NCI-H929 cells, Celltiter-Glo, read-out: 48 hr H929 Viability Celltiter-Glo: Mean EC50. As for the experimental part:
Plates were incubated at 37° C., 5% CO2 for 48 hours. After 48 hours, Celltiter-Glo® (Promega) was added to each well and luciferase signal was quantified using Tecan Infinite M1000 Pro for cell viability determination.
For chemical structures that include one or more stereoisomers, but are illustrated without indicating stereochemistry, the assay data refers to a mixture of stereoisomers.

Setting [7] is: 24 hr doxycycline induction, Gaussia luciferase signal.

Take `CC(C)OC(C)(C)c1csc(NC(=O)c2ccc(C(=O)N(C)C)n2Cc2ccncc2)n1` [Compound A107, N2-(4-(2-isopropoxypropan-2-yl)thiazol-2-yl)-N5,N5-dimethyl-1-(pyridin-4-ylmethyl)-1H-pyrrole-2,5-dicarboxamide]: the IC50 in assay [1] (setting [7]), in assay [2] (setting [7]), in assay [3] (setting [7]) and in assay [4] (setting [7]) was over 25 µM throughout. The 50% effective concentration (EC50) in assay [5] and in assay [6] was over 25 µM throughout.

Regarding `CC(C)(C)c1cc(NC(=O)c2cccn2Cc2ccncc2)no1` [Compound B4, N-(5-(tert-butyl)isoxazol-3-yl)-1-(pyridin-4-ylmethyl)-1H-pyrrole-2-carboxamide], the IC50 in assay [1] (24 hr, doxycycline-induced) is over 25 µM; in assay [2] (24 hr, doxycycline-induced), 11.2 µM; in assay [3] (24 hr, doxycycline-induced), 22.5 µM; in assay [4] (24 hr, doxycycline-induced), 3.02 µM. In addition, the EC50 in assay [5] and in assay [6] was over 25 µM throughout.

For the molecule `O=C(Nc1nc(/C=C/c2ncc(F)cc2F)cs1)c1cccn1Cc1ccncc1` [Compound A358], the IC50 is 3.57 µM in assay [1] (24 hr, doxycycline-induced); 0.443 µM in assay [2] (24 hr, doxycycline-induced); 0.765 µM in assay [3] (24 hr, doxycycline-induced); 0.029 µM in assay [4] (24 hr, doxycycline-induced). Further, the 50% effective concentration (EC50) (commonly the concentration giving half of the maximal effect) in assay [5] was over 25 µM; in assay [6], 17.9 µM.

`O=C(Nc1nc(/C=C/Cc2ccccc2)cs1)c1cccn1CCCc1ccncc1` [Compound A217, N-(4-(3-phenylprop-1-en-1-yl)thiazol-2-yl)-1-(3-(pyridin-4-yl)propyl)-1H-pyrrole-2-carboxamide]: the IC50 in assay [1] (setting [7]) is 3.53 µM; in assay [2] (setting [7]), 0.425 µM; in assay [3] (setting [7]) it was 0.943 µM; in assay [4] (setting [7]), 0.245 µM. Besides, the concentration giving a half-maximal response (EC50) in assay [5] was over 25 µM; in assay [6], over 21.5 µM.

Turning to `O=C(Nc1nc(CCc2ccccc2Cl)cs1)c1cccn1Cc1ccncc1` [Compound A178], the IC50 amounted to 0.929 µM in assay [1] (setting [7]), 0.367 µM in assay [2] (setting [7]), 0.5 µM in assay [3] (setting [7]) and 0.152 µM in assay [4] (setting [7]). Moreover, the results for the concentration for a half-maximal effect (EC50) in assay [5] and in assay [6] were 19.9 µM and 9.27 µM, respectively.

Turning to `O=C(Nc1nc(C2COc3ccccc3C2)cs1)c1cccn1Cc1ccncc1` (stereo not drawn) [Compound A296], the IC50 worked out at 10.3 µM in assay [1] (24 hr, doxycycline-induced); 1.21 µM in assay [2] (24 hr, doxycycline-induced); 1.15 µM in assay [3] (24 hr, doxycycline-induced); 0.655 µM in assay [4] (24 hr, doxycycline-induced). Also, the concentration for a half-maximal effect (EC50) in assay [5] and in assay [6] was over 25 µM each time.

As to `O=C(Nc1nc(/C=C/C2CCCCO2)cs1)c1cccn1Cc1ccncc1` (stereo not drawn) [Compound A155, 1-(pyridin-4-ylmethyl)-N-(4-(2-(tetrahydro-2H-pyran-2-yl)vinyl)thiazol-2-yl)-1H-pyrrole-2-carboxamide], the IC50 worked out at 15.9 µM in assay [1] (setting [7]), 2.14 µM in assay [2] (setting [7]), 4.37 µM in assay [3] (setting [7]) and 0.232 µM in assay [4] (setting [7]). Also, the EC50 in assay [5] and in assay [6] was over 25 µM each time.

For the molecule `COc1cnc(NC(=O)c2cccn2Cc2ccncc2)s1` [Compound A82], the IC50 in assay [1] (setting [7]) is over 25 µM; in assay [2] (setting [7]), over 25 µM; in assay [3] (setting [7]), over 25 µM; in assay [4] (setting [7]) it was 4.66 µM. The EC50 in assay [5] and in assay [6] was over 25 µM in each case.

On to `O=C(Nc1nc([C@H]2CCCN2c2ccc3c(c2)OCO3)cs1)c1cccn1Cc1ccncc1` [Compound A359], for which the IC50 was 0.083 µM in assay [1] (24 hr, doxycycline-induced); 0.013 µM in assay [2] (24 hr, doxycycline-induced); 0.015 µM in assay [3] (24 hr, doxycycline-induced); 0.011 µM in assay [4] (24 hr, doxycycline-induced). The EC50 in assay [5] is over 25 µM; in assay [6], 0.382 µM.

As for `Cc1sc(NC(=O)c2cccn2Cc2ccncc2)nc1/C=C/c1ccccc1` [Compound A297], the IC50 in assay [1] (24 hr, doxycycline-induced) is 2.82 µM; in assay [2] (24 hr, doxycycline-induced) it was 0.251 µM; in assay [3] (24 hr, doxycycline-induced) it was 0.687 µM; in assay [4] (24 hr, doxycycline-induced), 0.066 µM. Also, the EC50 in assay [5] and in assay [6] was over 25 µM each time.
